The target of one data set is T1, mGlyT-1b (Mus musculus, UniProt P28571).
T1 sequence (P28571 1-651 isoform P28571-2): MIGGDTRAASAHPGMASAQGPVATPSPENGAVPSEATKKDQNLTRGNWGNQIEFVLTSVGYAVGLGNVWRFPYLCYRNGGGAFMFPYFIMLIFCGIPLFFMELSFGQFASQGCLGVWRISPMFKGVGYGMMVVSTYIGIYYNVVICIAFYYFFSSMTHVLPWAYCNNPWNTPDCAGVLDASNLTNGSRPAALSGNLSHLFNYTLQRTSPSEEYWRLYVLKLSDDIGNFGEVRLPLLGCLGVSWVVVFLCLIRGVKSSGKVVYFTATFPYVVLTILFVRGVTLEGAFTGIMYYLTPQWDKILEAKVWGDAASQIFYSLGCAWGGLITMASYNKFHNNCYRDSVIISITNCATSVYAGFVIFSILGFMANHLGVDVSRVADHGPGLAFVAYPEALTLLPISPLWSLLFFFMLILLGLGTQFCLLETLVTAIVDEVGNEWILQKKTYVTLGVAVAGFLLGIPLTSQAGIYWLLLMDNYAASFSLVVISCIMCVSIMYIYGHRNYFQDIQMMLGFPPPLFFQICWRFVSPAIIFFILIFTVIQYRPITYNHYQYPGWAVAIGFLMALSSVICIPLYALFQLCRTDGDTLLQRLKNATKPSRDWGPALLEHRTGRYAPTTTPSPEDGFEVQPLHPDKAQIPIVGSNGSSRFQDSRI
The data set is described as follows: Glycine uptake inhibition assay (mGlyT-1b). The format is cell-based.

Where two headings read alike, the source gives them in different places.

`Cc1ccc(C2CCCCC2N2CCC3(CC2)C(=O)NCN3c2ccccc2)cc1` (racemic) [Example 8, (rac,cis)-1-Phenyl-8-(2-p-tolyl-cyclohexyl)-1,3,8-triaza-spiro[4.5]decan-4-one]: the melting point (in general, the temperature, or range, at which the solid turns liquid) was in the range of 174 to 176 °C.

As for `O=C1NCN(c2ccc(F)cc2)C12CCN([C@H]1CCCC[C@H]1c1ccc(Cl)cc1)CC2` (racemic) [Example 17, (rac,cis)-8-[2-(4-Chloro-phenyl)-cyclohexyl]-1-(4-fluoro-phenyl)-1,3,8-triaza-spiro[4.5]decan-4-one], the IC50 (commonly the concentration that inhibits the measured activity by half) against mGlyT-1b was found to be 74 nM. In the case of `COc1ccc(N2CNC(=O)C23CCN(C2CCCCC2(O)c2ccc(Cl)cc2)CC3)cc1` (racemic) [Example 92, (rac,cis)-8-[2-(4-Chloro-phenyl)-2-hydroxy-cyclohexyl]-1-(4-methoxy-phenyl)-1,3,8-triaza-spiro[4.5]decan-4-one], the 50% inhibitory concentration (IC50) against mGlyT-1b was found to be 99 nM. As to `O=C1NCN(c2ccc(Cl)cc2)C12CCN(C1CCCCC1(O)c1ccc(F)cc1)CC2` (racemic) [Example 89, (rac,cis)-1-(4-Chloro-phenyl)-8-[2-(4-fluoro-phenyl)-2-hydroxy-cyclohexyl]-1,3,8-triaza-spiro[4.5]decan-4-one], on mGlyT-1b, half-maximal inhibition (IC50) was put at 15 nM. As to `O=C1NCN(c2ccccc2)C12CCN(C1CCCCC1c1ccccc1)CC2` (racemic) [Example 68, (rac,trans)-1-Phenyl-8-(2-phenyl-cyclohexyl)-1,3,8-triaza-spiro[4.5]decan-4-one], the melting point lay in the range of 254 to 256 °C. Turning to `O=C1NCN(c2ccccc2)C12CCN(C1CCCCC1(O)c1ccncc1)CC2` (racemic) [Example 77, (rac,cis) 8-(2-Hydroxy-2-pyridin-4-yl-cyclohexyl)-1-phenyl-1,3,8-triaza-spiro[4.5]decan-4-one], it took 62 nM to reach half-maximal inhibition against mGlyT-1b (IC50).

In the case of `O=C1NCN(c2ccccc2)C12CCN(C1CCCCC1(O)c1ccccc1)CC2` (racemic) [Example 74, (rac,cis)-8-(2-Hydroxy-2-phenyl-cyclohexyl)-1-phenyl-1,3,8-triaza-spiro[4.5]decan-4-one], the IC50 at mGlyT-1b is 44 nM.

Take `O=C1NCN(c2ccc(F)cc2)C12CCN(C1CCCCC1c1ccc(F)cc1)CC2` (racemic) [Example 24, (rac,cis)-1-(4-Fluoro-phenyl)-8-[2-(4-fluoro-phenyl)-cyclohexyl]-1,3,8-triaza-spiro[4.5]decan-4-one]: at mGlyT-1b, the concentration for half-maximal inhibition (IC50) is 67 nM. Still for that read-out and setting: the same measure for `O=C1NCN(c2ccccc2)C12CCN(C1CCCCC1(O)c1ccc(F)cc1)CC2` (racemic) [Example 75, (rac,cis)-8-[2-(4-Fluoro-phenyl)-2-hydroxy-cyclohexyl]-1-phenyl-1,3,8-triaza-spiro[4.5]decan-4-one]: 41 nM.

Consider `Cc1ccc(N2CNC(=O)C23CCN(C2CCCCC2(O)c2ccc(F)cc2)CC3)cc1` (racemic) [Example 91, (rac,cis)-8-[2-(4-Fluoro-phenyl)-2-hydroxy-cyclohexyl]-1-p-tolyl-1,3,8-triaza-spiro[4.5]decan-4-one], for which, at mGlyT-1b (Flp-in-CHO cells stably transfected with mGlyT-1b cDNA, [3H]-glycine 60 nM and 25 μM non-radioactive glycine, 20 min preincubation at 22° C., read-out: IC50 at GlyT-1 (inhibition of glycine uptake)), the IC50 amounted to 39 nM. In the case of `O=C1NCN(c2ccccc2)C12CCN(C1CCCCC1(O)c1ccccc1)CC2` (racemic) [Example 101, (rac,trans)-8-(2-Hydroxy-2-phenyl-cyclohexyl)-1-phenyl-1,3,8-triaza-spiro[4.5]decan-4-one], on mGlyT-1b, 56 nM corresponded to half-maximal inhibition (IC50). `O=C1NCN(c2ccc(F)cc2)C12CCN(C1CCCCC1(O)c1ccc(Cl)cc1)CC2` (racemic) [Example 88, (rac,cis)-8-[2-(4-Chloro-phenyl)-2-hydroxy-cyclohexyl]-1-(4-fluoro-phenyl)-1,3,8-triaza-spiro[4.5]decan-4-one] had a 50% inhibitory concentration (IC50) against mGlyT-1b of 60 nM. Still for that read-out and setting: the same measure for `O=C1NCN(c2ccccc2)C12CCN(C1CCCCC1(O)c1ccc(Cl)cc1)CC2` (racemic) [Example 78, (rac,cis)-8-[2-(4-Chloro-phenyl)-2-hydroxy-cyclohexyl]-1-phenyl-1,3,8-triaza-spiro[4.5]decan-4-one]: 86 nM; for `Cc1ccc(C2CCCCC2N2CCC3(CC2)C(=O)NCN3c2ccc(F)cc2)cc1` (racemic) [Example 22, (rac,cis)-1-(4-Fluoro-phenyl)-8-(2-p-tolyl-cyclohexyl)-1,3,8-triaza-spiro[4.5]decan-4-one]: 29 nM. `O=C1NCN(c2ccc(F)cc2)C12CCN(C1CCCCC1(O)c1ccc(F)cc1)CC2` (racemic) [Example 87, (rac,cis)-1-(4-Fluoro-phenyl)-8-[2-(4-fluoro-phenyl)-2-hydroxy-cyclohexyl]-1,3,8-triaza-spiro[4.5]decan-4-one] gave an IC50 against mGlyT-1b of 24 nM. For `O=C1NCN(c2ccccc2)C12CCN(C1CCOCC1(O)c1ccccc1)CC2` (racemic) [Example 100, (rac,cis)-8-(3-Hydroxy-3-phenyl-tetrahydro-pyran-4-yl)-1-phenyl-1,3,8-triaza-spiro[4.5]decan-4-one], the concentration for half-maximal inhibition (IC50) against mGlyT-1b came to 90 nM. Consider `O=C1NCN(c2ccccc2)C12CCN([C@H]1CCCC[C@H]1c1ccc(F)cc1)CC2` (racemic) [Example 10, (rac,cis)-8-[2-(4-Fluoro-phenyl)-cyclohexyl]-1-phenyl-1,3,8-triaza-spiro[4.5]decan-4-one], for which the melting point was in the range of 198 to 200 °C. Regarding `O=C1NCN(c2ccccc2)C12CCN(C1CCCCC1c1ccccc1)CC2` (racemic) [Example 1, (rac,cis)-1-Phenyl-8-(2-phenyl-cyclohexyl)-1,3,8-triaza-spiro[4.5]decan-4-one], the melting point lay within 205 to 208 °C. `CC(C)CCN1CNC(=O)C12CCN(C1CCCCC1c1ccccc1)CC2` (racemic) [Example 54, (rac,cis)-1-(3-Methyl-butyl)-8-(2-phenyl-cyclohexyl)-1,3,8-triaza-spiro[4.5]decan-4-one] yielded an IC50 at mGlyT-1b of 52 nM.

For `Cc1ccccc1C1(O)CCCCC1N1CCC2(CC1)C(=O)NCN2c1ccccc1` (racemic) [Example 76, (rac,cis)-8-(2-Hydroxy-2-o-tolyl-cyclohexyl)-1-phenyl-1,3,8-triaza-spiro[4.5]decan-4-one], it took 50 nM to reach half-maximal inhibition on mGlyT-1b (IC50). `O=C1NCN(c2ccc(Cl)cc2)C12CCN(C1CCCCC1(O)c1ccc(Cl)cc1)CC2` (racemic) [Example 90, (rac,cis)-1-(4-Chloro-phenyl)-8-[2-(4-chloro-phenyl)-2-hydroxy-cyclohexyl]-1,3,8-triaza-spiro[4.5]decan-4-one] had an IC50 at mGlyT-1b of 43 nM. In turn, `O=C1NCN(c2ccccc2)C12CCN(C1COCCC1(O)c1ccccc1)CC2` (racemic) [Example 99, (rac,cis)-8-(4-Hydroxy-4-phenyl-tetrahydro-pyran-3-yl)-1-phenyl-1,3,8-triaza-spiro[4.5]decan-4-one] had an IC50 on mGlyT-1b of 58 nM.

On to `O=C1NCN(c2ccccc2)C12CCN([C@H]1CCCC[C@H]1c1ccc(Cl)c(Cl)c1)CC2` (racemic) [Example 13, (rac,cis)-8-[2-(3,4-Dichloro-phenyl)-cyclohexyl]-1-phenyl-1,3,8-triaza-spiro[4.5]decan-4-one], for which the melting point lay in the range of 198 to 200 °C. `O=C1NCN(c2ccccc2)C12CCN([C@H]1CCCC[C@H]1c1ccc(Cl)cc1)CC2` (racemic) [Example 11, (rac,cis)-8-[2-(4-Chloro-phenyl)-cyclohexyl]-1-phenyl-1,3,8-triaza-spiro[4.5]decan-4-one] registered a melting point of 204 to 206 °C. `O=C1NCN(c2ccc(Cl)c(Cl)c2)C12CCN(C1CCCCC1c1ccccc1)CC2` (racemic) [Example 59, (rac,cis)-1-(3,4-Dichloro-phenyl)-8-(2-phenyl-cyclohexyl)-1,3,8-triaza-spiro[4.5]decan-4-one] had a half-inhibitory concentration (IC50) against mGlyT-1b of 32 nM.

The values above are taken from US7189850B2, “Triaza-spiropiperidine derivatives” (Hoffmann-La Roche Inc., priority 2003, dated 2007).
